According to ChEMBL document CHEMBL5108004, “An auristatin-based peptide-drug conjugate targeting Kita-Kyushu lung cancer antigen 1 for precision chemoradiotherapy in gastric cancer” (Eur J Med Chem, 2022):
Active and inactive are the calls of the source. The rule behind the calls is not given here. *1 amine or outer side, *2 acyl side, *3 side chain or, on linkers, in order; H or OH if unused. Where a SMILES comes first, the peptide text is derived from it. Bridges are numbered along the chain shown (N, C = ends). Roman numbers before positions name the chains, in order. [ ]: non-standard residue; d: D form. The star is where a group is joined. Hexanoyl(6-succinimido-3yl) = O=C1CC([*:1])C(=O)N1CCCCCC(=O)[*:2]; Dolaproine = CO[C@@H]([C@@H]1CCCN1)[C@@H](C)C(=O)O; Dil = CC[C@H](C)[C@H](NC)[C@@H](CC(=O)O)OC; PABC = O=C(OCc1ccc(N[*:1])cc1)[*:2]; X1 = C[C@@H](N*)[C@@H](O)c1ccccc1; Cit = NC(=O)NCCC[C@H](N)C(=O)O; NMeV = CN[C@H](C(=O)O)C(C)C

What was measured:
[1] = Toxicity in male BALB/c nude mouse xenografted with KK-LC-1-positive human MKN-45 cells assessed as body weight loss at 3 mg/kg, iv administered twice a week for 3 weeks; assay type: organism-based; conditions: in vivo, 504 h
[2] = Toxicity in male BALB/c nude mouse xenografted with KK-LC-1-positive human MKN-45 cells assessed as mouse death at 3 mg/kg, iv administered twice a week for 3 weeks; assay type: organism-based; conditions: in vivo, 504 h
[3] = Toxicity in male BALB/c nude mouse xenografted with KK-LC-1-positive human MKN-45 cells assessed as body weight loss at 0.3 mg/kg, iv administered twice a week for 3 weeks; assay type: organism-based; conditions: in vivo, 504 h
[4] = Toxicity in male BALB/c nude mouse xenografted with KK-LC-1-positive human MKN-45 cells assessed as body weight loss at 1 mg/kg, iv administered twice a week for 3 weeks; assay type: organism-based; conditions: in vivo, 504 h
[5] = Toxicity in male BALB/c nude mouse xenografted with KK-LC-1-positive human MKN-45 cells assessed as body weight loss at 2 mg/kg, iv administered twice a week for 3 weeks; assay type: organism-based; conditions: in vivo, 504 h
[6] = Toxicity in male BALB/c nude mouse xenografted with KK-LC-1-positive human MKN-45 cells assessed as effect on liver function at 0.3 mg/kg, iv administered twice a week for 3 weeks; assay type: organism-based; conditions: in vivo, 504 h
[7] = Toxicity in male BALB/c nude mouse xenografted with KK-LC-1-positive human MKN-45 cells assessed as effect on liver function at 1 mg/kg, iv administered twice a week for 3 weeks; assay type: organism-based; conditions: in vivo, 504 h
[8] = Toxicity in male BALB/c nude mouse xenografted with KK-LC-1-positive human MKN-45 cells assessed as effect on liver function at 2 mg/kg, iv administered twice a week for 3 weeks; assay type: organism-based; conditions: in vivo, 504 h
[9] = Toxicity in male BALB/c nude mouse xenografted with KK-LC-1-positive human MKN-45 cells assessed as effect on kidney function at 0.3 mg/kg, iv administered twice a week for 3 weeks; assay type: organism-based; conditions: in vivo, 504 h
[10] = Toxicity in male BALB/c nude mouse xenografted with KK-LC-1-positive human MKN-45 cells assessed as effect on kidney function at 1 mg/kg, iv administered twice a week for 3 weeks; assay type: organism-based; conditions: in vivo, 504 h
[11] = Toxicity in male BALB/c nude mouse xenografted with KK-LC-1-positive human MKN-45 cells assessed as effect on kidney function at 2 mg/kg, iv administered twice a week for 3 weeks; assay type: organism-based; conditions: in vivo, 504 h
[12] = Toxicity in male BALB/c nude mouse xenografted with KK-LC-1-positive human MKN-45 cells administered intravenously twice a week for 3 weeks; conditions: in vivo, route iv
MKN-45 [13] = assay: Antitumor activity against KK-LC-1-positive human MKN-45 cells xenografted in male BALB/c nude mouse assessed as induction of tumor regression at 0.3 mg/kg, iv administered twice a week for 3 weeks; assay type: functional, organism-based
MKN-45 [14] = assay: Antitumor activity against KK-LC-1-positive human MKN-45 cells xenografted in male BALB/c nude mouse assessed as induction of tumor regression at 1 mg/kg, iv administered twice a week for 3 weeks; assay type: functional, organism-based
MKN-45 [15] = assay: Antitumor activity against KK-LC-1-positive human MKN-45 cells xenografted in male BALB/c nude mouse assessed as induction of tumor regression at 2 mg/kg, iv administered twice a week for 3 weeks; assay type: functional, organism-based
MKN-45 [16] = assay: Antitumor activity against KK-LC-1-positive human MKN-45 cells xenografted in male BALB/c nude mouse assessed as reduction in tumor growth at 0.3 mg/kg, iv administered twice a week for 3 weeks; assay type: functional, organism-based
MKN-45 [17] = assay: Antitumor activity against KK-LC-1-positive human MKN-45 cells xenografted in male BALB/c nude mouse assessed as reduction in tumor volume at 0.3 mg/kg, iv administered twice a week for 3 weeks; assay type: functional; design: scale not given: the % may be the effect or the level left
MKN-45 [18] = assay: Antitumor activity against KK-LC-1-positive human MKN-45 cells xenografted in male BALB/c nude mouse assessed as tumor volume at 0.3 mg/kg, iv administered twice a week for 3 weeks; assay type: functional
[19] = Toxicity in male BALB/c nude mouse xenografted with KK-LC-1-positive human MKN-45 cells assessed as increase in survival of mouse at 0.3 mg/kg, iv administered twice a week for 3 weeks; assay type: organism-based; conditions: in vivo, 504 h
NUGC-4 [20] = assay: Antitumor activity against KK-LC-1-positive human NUGC-4 cells xenografted in male BALB/c nude mouse assessed as reduction in tumor burden at 0.3 mg/kg, iv administered once a week for 3 weeks followed by exposure to 2 Gy gamma irradiation for 2 consecutive days once a week for 3 weeks; assay type: functional, organism-based
[21] = Toxicity in male BALB/c nude mouse xenografted with KK-LC-1-positive human NUGC-4 cells assessed as effect on body weight at 0.3 mg/kg, iv administered once a week for 3 weeks followed by exposure to 2 Gy gamma irradiation for 2 consecutive days once a week for 3 weeks; assay type: organism-based; conditions: in vivo, 504 h
[22] = Toxicity in male BALB/c nude mouse xenografted with KK-LC-1-positive human NUGC-4 cells assessed as mouse survival at 0.3 mg/kg, iv administered once a week for 3 weeks followed by exposure to 2 Gy gamma irradiation for 2 consecutive days once a week for 3 weeks measured after 47 days; assay type: organism-based; conditions: in vivo
[23] = Toxicity in male BALB/c nude mouse xenografted with KK-LC-1-positive human NUGC-4 cells assessed as median survival time at 0.3 mg/kg, iv administered once a week for 3 weeks; assay type: organism-based; conditions: in vivo, 504 h
[24] = Toxicity in male BALB/c nude mouse xenografted with KK-LC-1-positive human NUGC-4 cells assessed as median survival time at 0.3 mg/kg, iv administered once a week for 3 weeks followed by exposure to 2 Gy gamma irradiation for 2 consecutive days once a week for 3 weeks measured after 47 days; assay type: organism-based; conditions: in vivo, 504 h
NUGC-4 [25] = assay: Antitumor activity against KK-LC-1-positive human NUGC-4 cells xenografted in male BALB/c nude mouse assessed as decrease in Ki67 at 0.3 mg/kg, iv administered once a week for 3 weeks followed by exposure to 2 Gy gamma irradiation for 2 consecutive days once a week for 3 weeks measured by immunohistochemical staining analysis; assay type: functional, organism-based

For `CC[C@H](C)[C@@H]([C@@H](CC(=O)N1CCC[C@H]1[C@H](OC)[C@@H](C)C(=O)N[C@H](C)[C@@H](O)c1ccccc1)OC)N(C)C(=O)[C@@H](NC(=O)[C@@H](NC(=O)[C@H](C(C)C)N(C)C(=O)OCc1ccc(NC(=O)[C@H](CCCNC(N)=O)NC(=O)[C@@H](NC(=O)CCCCCN2C(=O)CC(SC[C@H](N)C(=O)N[C@H]3CSSC[C@@H](C(=O)O)NC(=O)[C@H]([C@@H](C)O)NC(=O)[C@H]([C@@H](C)O)NC(=O)[C@H](CC(C)C)NC(=O)[C@H](C)NC(=O)[C@H]([C@@H](C)O)NC(=O)[C@H](CC(N)=O)NC(=O)[C@H](CCCCN)NC3=O)C2=O)C(C)C)cc1)C(C)C)C(C)C` (stereo not given in full) (I: H-CCKNTALTTC-OH / II: V[Cit][PABC][NMeV]VV[Dil][Dolaproine]-X1; linker I:1-II:N via Hexanoyl(6-succinimido-3yl); disulfide I:2-I:10), which Activity [1] is on record?
Its Activity is “Toxic”.

And the Activity [2]?
The Activity was “Toxic”.

And the Activity [3]?
The Activity was “Non-Toxic”.

What about the Activity [4] of the same compound?
Its Activity is “Non-Toxic”.

What about the Activity [5] of the same compound?
Its Activity is “Non-Toxic”.

What about the Activity [6] of the same compound?
Its Activity is “Non-Toxic”.

What about the Activity [7] of the same compound?
The Activity was “Non-Toxic”.

What about the Activity [8] of the same compound?
The Activity was “Non-Toxic”.

And the Activity [9]?
The Activity was “Non-Toxic”.

What about the Activity [10] of the same compound?
The Activity was “Non-Toxic”.

What about the Activity [11] of the same compound?
Its Activity is “Non-Toxic”.

What about the MTD at 504 h [12] of the same compound?
The MTD at 504 h was 2 mg/kg.

What about the Activity (MKN-45 [13]) of the same compound?
Its Activity is “Active”.

What about the Activity (MKN-45 [14]) of the same compound?
Its Activity is “Active”.

And the Activity (MKN-45 [15])?
The Activity was “Active”.

What about the Activity (MKN-45 [16]) of the same compound?
Its Activity is “Active”.

What about the Activity (MKN-45 [17]) of the same compound?
The Activity was 48.5%.

And the Activity (MKN-45 [18])?
The Activity was 292.1 mm3.

And the Activity [19]?
The Activity was “Non-Toxic”.

What about the Activity (NUGC-4 [20]) of the same compound?
The Activity was “Active”.

What about the Activity [21] of the same compound?
The Activity was “Non-Toxic”.

And the survival at 504 h [22]?
Its survival at 504 h is 83.3%.

And the MST [23]?
The MST was 40 days.

And the MST [24]?
Its MST is 58 days.

And the Activity (NUGC-4 [25])?
Its Activity is “Active”.
